Measurements published in paper PMC6406907, “A H2AX–CARP-1 Interaction Regulates Apoptosis Signaling Following DNA Damage” (Cancers, 2019).

Test system: CARP-1, phospho-JNK1/2, phospho-H2AX, PARP
Experiment: Western blot of CARP-1, phospho-JNK1/2, γH2AX, cleaved PARP in MDA-MB-468
Type: cell-based, human
Details: for expression of CARP-1, phospho-JNK1/2, phospho-H2AX / PARP cleavage: MDA-MB-468, WB; for PARP cleavage: robust cleaved PARP over 12-h treatment period; for CARP-1 levels and γH2AX: MDA-MB-468, WB / IF
Experimental: Logarithmically growing cells were either untreated or treated with different agents for various time periods. The cells were lysed to prepare protein extracts. IP was carried out by incubating approximately 1 mg of the protein lysate with appropriate antibodies. The immunoprecipitates were then analyzed by SDS-PAGE, followed by WB with respective, interacting protein. For Gst-pulldown, Gst-H2AX or various His-TAT-HA-tagged CARP-1 peptides were generated in Escherichia coli (E. coli) BL21 cells essentially as described by us previously. Briefly, the competent E. coli BL-21 (DE3) pLysS cells were transformed separately with various recombinant pGEX-4T-1 or pTAT-HA constructs. The transformed cells were then subjected to selection by combined presence of ampicillin and chloramphenicol; various isolates for each transformation were obtained and bacterial lysates were characterized for expression of fusion peptides. Cells from each isolate were grown in 4 mL of LB medium containing ampicillin only until the optical density (OD)600 reached 0.4–0.8. Expression of fusion peptides was induced over 2–4 h incubation periods after Isopropyl β-D-1-thiogalactopyranoside (IPTG) addition. The cells were harvested, and pellets were stored at −80 °C overnight. The cell pellets were then lysed in 100–400 μL of bacterial protein extraction reagent (BPER) buffer (Thermo Scientific, Waltham, MA, USA, Cat# 78243) containing 2 μL/mL of 10 units/μL DNAse I (Boehringer Mannheim, Fremont, CA, USA, Cat # 776–785), and supernatant checked for expression of respective fusion peptides by WB. Following confirmation of expression, 5–20 μL of lysate expressing Gst fusion protein was first incubated with 20 μL of precleared glutathione sepharose in a final volume of 100 μL at 4 °C for 2 h with constant rotation. The sepharose beads were spun at 800× g for 2 min, and the pellet was washed 2–4 times with 100–200 μL of RIPA buffer (20 mM Tris-HCl (pH 7.5), 150 mM NaCl, 1 mM Na2EDTA, 1 mM EGTA, 1% NP-40, 1% sodium deoxycholate, 2.5 mM sodium pyrophosphate, 1 mM β-glycerophosphate, 1 mM Na3VO4, 1 µg/mL leupeptin) with 0.5 M NaCl. The beads were spun again as above, and mixed with 5–20 μL of E. coli lysate expressing His-TAT-HA CARP-1 peptides. The reactions were incubated further at 4 °C for 2 h with constant rotation. The peptide-bound sepharose beads were pelleted and washed with 100–200 μL of RIPA buffer with 0.1 M NaCl for 2–4 washes. In some cases, additional washes with 0.05 M NaCl buffer were carried out. After the final wash, the sepharose–protein complexes were spun, and then re-suspended in SDS loading buffer for electrophoresis on 12–15% SDS PAGE, followed by WB with appropriate antibodies.
Here, we utilized human TNBC MDA-MB-468 and human cervical cancer HeLa cells to conduct an MTT-based dose-response analysis using Adriamycin and CFM compounds. […] Since Adriamycin, CFM-4, and CFM-4.16 have molecular masses of 543.3, 404.9, and 440.3, respectively, we chose to use an equimolar dose of each compound in the MTT assays. […] Prior reports established that phosphorylation of H2AX at serine 139 (γ-H2AX) is involved in DNA damage repair and apoptotic signaling by ATM/ATR and JNKs, respectively. Next, the MDA-MB-468, HeLa, and the kidney cancer UOK 262 cells were treated with a 10 μM dose of the CFM-4.16 or Adriamycin for various time periods. The cell lysates from the control, untreated, and treated cells were analyzed by WB for expression of CARP-1, phospho-JNK1/2, phospho-H2AX, and poly ADP ribose polymerase (PARP) proteins. […] The H2AX activation is also indicative of DNA damage and involves pro-apoptotic JNKs. Our data in Figure 1C and Figure S1B,C (Supplementary Materials) also show activation of JNKs; however, a robust JNK activation is co-incident with H2AX phosphorylation following treatments with Adriamycin or CFM-4.16. […]

COc1cccc2c1C(=O)c1c(O)c3c(c(O)c1C2=O)C[C@@](O)(C(=O)CO)C[C@@H]3O[C@H]1C[C@H](N)[C@H](O)[C@H](C)O1 [Adriamycin, doxorubicin, reference compound]
H2AX activation (10 μM Adriamycin, WB): robust at 12 h | expression of CARP-1, phospho-JNK1/2, phospho-H2AX (10 μM): stimulated expression of CARP-1, phospho-JNK1/2, and phospho-H2AX in a time-dependent manner | PARP cleavage (10 μM): provoked PARP cleavage in a time-dependent manner | time of earliest stimulation of PARP cleavage (10 μM, MDA-MB-468, "as early as"): 3 h | γH2AX (MDA-MB-468, Adriamycin alone, WB): robust increase in γH2AX | CARP-1 levels and γH2AX: robust increase in CARP-1 levels and γH2AX

O=C1N(Cc2ccccc2Cl)c2ccccc2C12NN=C(c1cccc(Cl)c1)S2 (stereo not drawn) [CFM-4.16]
expression of CARP-1, phospho-JNK1/2, phospho-H2AX (10 μM): stimulated expression of CARP-1, phospho-JNK1/2, and phospho-H2AX in a time-dependent manner | PARP cleavage (10 μM): provoked PARP cleavage in a time-dependent manner | CARP-1 levels and γH2AX: robust increase in CARP-1 levels and γH2AX
